Experimental data: US8377899B2, “Composition for treatment of cervix cancer” (priority 2006, dated 2013)

What was measured:
[1] = test system: HeLa cells; assay: MTT assay, cytotoxic effect of cisplatin; format: cell-based; conditions: cisplatin 0.625-80 μM for 48 hours
Description: The present inventors also investigated cytotoxic effect of cisplatin on HeLa cells by MTT assay. HeLa cells were treated with different concentrations of cisplatin (0.625, 1.25, 2.5, 5, 10, 25, 40, and 80 μM) for 48 hours, followed by MTT assay to measure the cell growth inhibitory effect.

[2] = test system: HeLa cells; assay: Long-term combination therapy of E6 siRNA and cisplatin, trypan blue cell count; format: cell-based; conditions: 7th day; siRNA 100 nM transfected twice and/or cisplatin 1.25 μM for 4 days
Description: To evaluate cytotoxic effect of the long-term combination therapy of synthetic E6 siRNA and cisplatin chemotherapy on cervix cancer cells, HeLa cells were co-treated for a long period of time.
Then, the single therapy group (treated with 18E6-1 siRNA, 18E6-2 siRNA or cisplatin alone) and the combination therapy group (treated with cisplatin and 18E6-1 siRNA or 18E6-2 siRNA) were compared. To obtain the maximum RNAi efficiency, siRNA transfection was repeated after 24 hours from the first transfection. For the transfection, 13 μl of opti-MEM (Gibco, USA) and 2 μl of oligofectamine were added into a 1.5 ml E-tube. To the other 1.5 ml E-tube were added 100 nM of siRNA and opti-MEM to make total volume […]. 5 minutes later, the content of the E-tube containing oligofectamine was transferred into the other E-tube to make the total volume 200 μl, which stood by for 20 minutes to form a complex. […] On the 7th day of culture, the cells were recovered by treating with trypsin, stained with 0.3% trypan blue solution and counted with hemocytometer.
The cells were cultured in normal growth medium for additional 7 days, and harvested by treating them with trypsin. The cells were stained with 0.3% trypan blue and counted with hemocytometer (FIG. 11). […]

[3] = test system: HeLa cells; assay: Senescence, SA β-Gal activity staining; format: cell-based
Description: The present inventors further investigated whether the combination therapy of cisplatin with 18E6 siRNAs induced HeLa cell senescence. The inventors measured SA β-Gal activity on the 7th day of the treatment. The cells were washed with PBS using a senescence detection kit (BIoVision, USA) and treated with SA-β-gal staining solution at 37° C. for 12 hours. The cells stained with blue were observed under microscope (×100-200).
Three photographs of the cells were taken randomly to investigate the stained cells (FIG. 17).

[4] = test system: HeLa cells; assay: Cell morphology after single and combination therapy (phase contrast microscope); format: cell-based; conditions: 7th day of the treatment
Text: The present inventors cultured the cells in normal media additionally for 7 days to observe morphological changes.

[5] = test system: HeLa-Luc cells; assay: Cervix cancer xenograft model, luciferase bioluminescence tumor size; format: in vivo, balb-C nude mouse; conditions: after 2 weeks; siRNA 2 mg/kg and/or cisplatin 0.5 mg/kg, intraperitoneal, every other day by turns, 7 times
Description: To generate the cervix cancer xenograft model, 5×10^6 HeLa-Luc cells were injected subcutaneously into a 5 week old female balb-C nude mouse. 7 days later, tumor generation was confirmed. Then, the mouse was treated with siRNA (2 mg/kg) and cisplatin (0.5 mg/kg) every other day by taking turns, 7 times (intraperitoneal injection).
Isofluran was used as an anesthetic for in vivo imaging. Luciferase activity, which increases with the growth of a tumor, was measured 15 minutes after intraperitoneal injection of luciferin.
Bioluminescence signal released by luciferase was represented as the unit of photons/second/steradian/cm2, and the luciferase signal increases as the tumor grew.

[6] = test system: HeLa cells; assay: Apoptosis, annexin V and propidium iodide flow cytometry; format: cell-based; conditions: 7th day of the treatment, attached cells
Text: To examine apoptosis in the cells treated with 18E6-1 siRNA or 18E6-2 siRNA, the cells attached on the 7th day of the treatment were collected, stained with annexin V and propidium iodide (PI) and analyzed by flow cytometry. Apoptosis rates between the single therapy group and the combination therapy group were compared.

[7] = test system: HeLa cells; assay: Western blotting of p53 in HeLa cells treated with cisplatin; format: cell-based; conditions: 40 μM of cisplatin
Description: To investigate the effect of cisplatin on cervix cancer cells, HeLa cells were treated with cisplatin. 24 hours before the treatment, 1×10^6 cells were distributed in 100 mm culture dish and cultured at 37° C. with 5% CO2 and 100% humidity. Then, the cells were treated with 40 μM of cisplatin. 24 hours later, Western blotting was performed to measure the level of p53.

N.N.[Cl][Pt][Cl] [cisplatin]
cell survival rate [1]: reduced cisplatin dose dependently | cell growth (cell number) [2]: not significant | number of stained cells in three random photographs ([3]; 7th day of the treatment (FIG. 17)): Only a small amount of cells were stained | SA-β-Gal stained (blue) cells ([3]; 7th day of the treatment, microscope (FIG. 16)): some of the blue cells | cell growth observed by microscope [4]: grown regularly | tumor size [5]: not much different | apoptosis [6]: not increased | expression level of p53 [7]: dramatically increased | time at which the level of p53 reached the peak [7]: 24 h | time for which the high level of p53 was constantly observed [7]: 48 h
